pIC50: −log10 of the molar value. Like-named read-outs stand apart in the source and are kept apart here.
Columns and labels:
Type in all cases: biochemical
[1] = biological target: CDK2/cyclin A (Homo sapiens (Human), UniProt P24941); assay: CDK2/Cyclin A enzymatic activity assay (IMAP-FP); details: for pIC50: Table 2, read-out: CDK2; for IC50: Table 4, read-out: IC50 (μM) CDK2
[2] = biological target: CDK1/cyclin B (Homo sapiens (Human), UniProt P06493); assay: CDK1/Cyclin B enzymatic activity assay (IMAP-FP); details: for pIC50: Table 2, 20 μM ATP, read-out: CDK1; for IC50: Table 4, read-out: IC50 (μM) CDK1
Excerpt: A 384-well microtiter IMAP-FPT™ (Molecular Devices Trade Mark Technology) endpoint assay was used for CDK1/cyclin B kinase activity measurements. The same assay was used for IC50 determination of small molecule inhibitors.

[3] = biological target: CDK4/cyclin D1 (Homo sapiens (Human), UniProt P11802); assay: CDK4/Cyclin D1 enzymatic activity assay (Lance TR-FRET); details: for pIC50: Table 2, 3 μM ATP, read-out: CDK4; for IC50: Table 4, read-out: IC50 (μM) CDK4
Experimental: A 384-well microtiter Lance TR-FRET (time-resolved-fluorescence energy transfer) endpoint assay was used for CDK4/cyclin D1 kinase activity measurements. The same assay was used for IC50 determination of small molecule inhibitors. In general, the kinase reactions were carried out in 30 μL volumes in the reaction solution containing the following: 2 uL compound (in […]), 18 uL CDK4/cyclin D1 in Assay Buffer (50 mM HEPES, pH 7.5, 5 mM MgCl2, 2 mM MnCl2, 1 mM DTT, 0.05% BSA, 0.02% Tween-20), 10 uL of the mixture of pRb152 and ATP. The final reaction mixture contains compound (inhibitor) with the concentration varying from 0.005-10 μM, 2% DMSO, 0.3 nM CDK4/cyclin D1, 175 nM pRb152, and 3 μM ATP (Amersham Pharmacia, Cat. No. 27-2056-01). All reactions were run at room temperature in 384-well white flat-bottom OptiPlates (Perkin Elmer, Cat. No. 6007290) for 60 min then were quenched by the addition of 10 μL of 120 mM EDTA. The signals were captured by the addition of 40 μL of the Detection Solution containing the following: Detection Buffer (50 mM HEPES, pH 7.5, 30 mM EDTA, 0.1% Triton x-100, 0.05% BSA), 70 ng/mL anti-phospho-pRb(S780) (Cell Signaling Technology, Cat. No. 9307S), 1 nM Lance Eu-W1024-Rabbit anti-IgG (Perkin Elmer, Cat. No. AD0082), and 20 nM SureLight™ Allophycocyanin-Streptavidin (Perkin Elmer, Cat. No. CR130-100). The resulted solutions were incubated at room temperature for 2 hours before read on the Evision Multilabel Reader (Perkin Elmer, Envision 2102-0010).
CDk4/cyclin D1 recombinant protein used in the enzymatic activity assay was prepared by coexpressing pDEST10-CDK4 (N-terminal His6) and pFastBacDual-GST-hCyclinDl viruses in Sf21 cells.

CDK1/cyclin B, sequence (P06493 whole entry, species assumed): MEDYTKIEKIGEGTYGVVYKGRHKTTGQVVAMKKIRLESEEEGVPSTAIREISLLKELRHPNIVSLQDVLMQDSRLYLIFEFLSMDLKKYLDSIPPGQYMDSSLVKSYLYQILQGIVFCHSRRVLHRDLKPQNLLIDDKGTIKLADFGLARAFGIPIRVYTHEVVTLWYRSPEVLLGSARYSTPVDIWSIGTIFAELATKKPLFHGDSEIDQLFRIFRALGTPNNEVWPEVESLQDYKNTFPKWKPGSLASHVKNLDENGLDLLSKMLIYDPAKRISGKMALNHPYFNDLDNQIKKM
CDK1/cyclin B, sequence (P14635 whole entry partner, species assumed): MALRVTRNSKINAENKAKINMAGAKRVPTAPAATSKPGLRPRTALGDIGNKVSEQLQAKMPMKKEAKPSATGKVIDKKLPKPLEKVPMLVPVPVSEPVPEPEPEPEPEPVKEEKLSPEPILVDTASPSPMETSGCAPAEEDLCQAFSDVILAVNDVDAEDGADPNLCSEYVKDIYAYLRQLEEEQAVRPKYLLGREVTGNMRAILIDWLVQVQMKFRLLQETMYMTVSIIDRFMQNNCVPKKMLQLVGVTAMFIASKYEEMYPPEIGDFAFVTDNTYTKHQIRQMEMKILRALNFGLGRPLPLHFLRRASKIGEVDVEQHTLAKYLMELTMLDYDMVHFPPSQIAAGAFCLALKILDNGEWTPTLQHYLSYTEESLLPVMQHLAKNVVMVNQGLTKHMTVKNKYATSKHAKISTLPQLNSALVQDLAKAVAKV
CDK4/cyclin D1, sequence (P11802 whole entry): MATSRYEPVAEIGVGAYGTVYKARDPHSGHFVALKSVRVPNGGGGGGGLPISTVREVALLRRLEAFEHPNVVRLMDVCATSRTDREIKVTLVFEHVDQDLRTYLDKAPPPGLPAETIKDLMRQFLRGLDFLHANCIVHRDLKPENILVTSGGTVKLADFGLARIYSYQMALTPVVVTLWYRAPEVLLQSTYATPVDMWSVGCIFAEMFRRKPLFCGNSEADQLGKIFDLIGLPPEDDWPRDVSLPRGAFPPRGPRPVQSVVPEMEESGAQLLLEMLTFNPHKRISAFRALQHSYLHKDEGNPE
CDK4/cyclin D1, sequence (P24385 whole entry partner): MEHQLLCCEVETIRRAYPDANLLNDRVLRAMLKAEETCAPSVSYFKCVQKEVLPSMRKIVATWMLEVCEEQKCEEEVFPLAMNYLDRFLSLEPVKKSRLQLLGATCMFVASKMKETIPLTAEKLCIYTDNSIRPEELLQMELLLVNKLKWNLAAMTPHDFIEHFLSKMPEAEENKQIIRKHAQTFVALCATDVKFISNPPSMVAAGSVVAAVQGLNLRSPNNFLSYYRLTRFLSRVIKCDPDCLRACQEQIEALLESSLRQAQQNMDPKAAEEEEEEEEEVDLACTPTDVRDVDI

pIC50 [1]	pIC50 [2]	pIC50 [3]	IC50 [1]	IC50 [2]	IC50 [3]	Structure (SMILES)
< 4.82	< 4.82	7.00 to 8.00	–	–	–	CN(C)C(=O)c1cc2cnc(Nc3ccc(N4CCNCC4)nn3)nc2n1C1CCCC1 [Example 67, 7-Cyclopentyl-2-(6-piperazin-1-yl-pyridazin-3-ylamino)-7H-pyrrolo[2,3-d]pyrimidine-6-carboxylic acid dimethylamide]
< 4.82	< 4.82	7.00 to 8.00	> 15 µM	> 15 µM	0.026 µM	CN(C)C(=O)c1cc2cnc(Nc3ccc(N4CCN(CCO)CC4)cn3)nc2n1C1CCCC1 [Example 26, 7-Cyclopentyl-2-{5-[4-(2-hydroxy-ethyl)-piperazin-1-yl]-pyridin-2-ylamino}-7H-pyrrolo[2,3-d]pyrimidine-6-carboxylic acid dimethylamide]
< 4.82	< 4.82	7.00 to 8.00	–	–	–	CN(C)C(=O)c1cc2cnc(Nc3ccc(N4CCC(N)C4)cn3)nc2n1C1CCCC1 (racemic) [Example 13, Rac-2-[5-(3-Amino-pyrrolidin-1-yl)-pyridin-2-ylamino]-7-cyclopentyl-7H-pyrrolo[2,3-d]pyrimidine-6-carboxylic acid dimethylamide]
4.70	< 4.82	6.00 to 7.00	–	–	–	CN(C)C(=O)c1cc2cnc(Nc3ccc(N4CCN(C(=O)OC(C)(C)C)CC4)nn3)nc2n1C1CCCC1 [Example 45, 4-[6-(7-Cyclopentyl-6-dimethylcarbamoyl-7H-pyrrolo[2,3-d]pyrimidin-2-ylamino)-pyridazin-3-yl]-piperazine-1-carboxylic acid tert-butyl ester]
< 4.82	< 4.82	7.00 to 8.00	–	–	–	CC(=O)N1CCN(c2ccc(Nc3ncc4cc(C(=O)N(C)C)n(C5CCCC5)c4n3)nc2)CC1 [Example 7, 2-[5-(4-Acetylpiperazin-1-yl)-pyridin-2-ylamino]-7-cyclopentyl-7H-pyrrolo[2,3-d]pyrimidine-6-carboxylic acid dimethylamide]
< 4.82	< 4.82	7.00 to 8.00	–	–	–	CN(C)C(=O)c1cc2cnc(Nc3ccc(CN4CCNCC4)cn3)nc2n1C1CCCC1 [Example 42, 7-Cyclopentyl-2-(5-piperazin-1-ylmethyl-pyridin-2-ylamino)-7H-pyrrolo[2,3-d]pyri-midine-6-carboxylic acid dimethylamide]
–	–	–	10.3 µM	7.5 µM	0.11 µM	O=C(c1cc2cnc(Nc3ccc(N4CCNCC4)cc3)nc2n1C1CCCC1)N1CCC1 [Example 201, reference compound]
< 4.82	< 4.82	7.00 to 8.00	–	–	–	C[C@@H]1CN(Cc2ccc(Nc3ncc4cc(C(=O)N(C)C)n(C5CCCC5)c4n3)nc2)C[C@H](C)N1 [Example 75, 7-Cyclopentyl-2-[5-((3S,5R)-3,5-dimethyl-piperazin-1-ylmethyl)-pyridin-2-ylamino]-7H-pyrrolo[2,3-d]pyrimidine-6-carboxylic acid dimethylamide]
< 4.82	< 4.82	7.00 to 8.00	–	–	–	CN(C)C(=O)c1cc2cnc(Nc3ccc(C(=O)NC4CCNCC4)cn3)nc2n1C1CCCC1 [Example 3, 7-Cyclopentyl-2-[5-(piperidin-4-ylcarbamoyl)-pyridin-2-ylamino]-7H-pyrrolo[2,3-d]pyrimidine-6-carboxylic acid dimethylamide]
< 4.82	< 4.82	7.00 to 8.00	–	–	–	CCC(C)CN1CCN(c2ccc(Nc3ncc4cc(C(=O)N(C)C)n(C5CCCC5)c4n3)nc2)CC1 (stereo not drawn) [Example 99, 7-Cyclopentyl-2-{5-[4-(2-methyl-butyl)-piperazin-1-yl]-pyridin-2-ylamino}-7H-pyrrolo[2,3-d]pyrimidine-6-carboxylic acid dimethylamide]
< 4.82	< 4.82	7.00 to 8.00	–	–	–	CC(C)OCCN1CCN(c2ccc(Nc3ncc4cc(C(=O)N(C)C)n(C5CCCC5)c4n3)nc2)CC1 [Example 95, 7-Cyclopentyl-2-{5-[4-(2-isopropoxy-ethyl)-piperazin-1-yl]-pyridin-2-ylamino}-7H-pyrrolo[2,3-d]pyrimidine-6-carboxylic acid dimethylamide]
< 4.82	< 4.82	7.00 to 8.00	–	–	–	CN(C)C(=O)c1cc2cnc(Nc3ccc(CN4CCN(CCO)CC4)cn3)nc2n1C1CCCC1 [Example 85, 7-Cyclopentyl-2-{5-[4-(2-hydroxy-ethyl)-piperazin-1-ylmethyl]-pyridin-2-ylamino}-7H-pyrrolo[2,3-d]pyrimidine-6-carboxylic acid dimethylamide]
< 4.82	< 4.82	7.00 to 8.00	–	–	–	CN(C)C(=O)c1cc2cnc(Nc3ccc(N4CCN(C5CCCC5)CC4)cn3)nc2n1C1CCCC1 [Example 79, 7-Cyclopentyl-2-[5-(4-cyclopentyl-piperazin-1-yl)-pyridin-2-ylamino]-7H-pyrrolo[2,3-d]pyrimidine-6-carboxylic acid dimethylamide]
< 4.82	< 4.82	8.00 to 9.00	–	–	–	C[C@@H]1CN(c2ccc(Nc3ncc4cc(C(=O)N(C)C)n(C5CCCC5)c4n3)nc2)CCN1 [Example 16, 7-Cyclopentyl-2-[5-((R)-3-methyl-piperazin-1-yl)-pyridin-2-ylamino]-7H-pyrrolo[2,3-d]pyrimidine-6-carboxylic acid dimethylamide]
< 4.82	< 4.82	7.00 to 8.00	–	–	–	CN(C)C(=O)c1cc2cnc(Nc3ccc(N4CCN(C(=O)C5CC5)CC4)cn3)nc2n1C1CCCC1 [Example 27, 7-Cyclopentyl-2-[5-(4-cyclopropanecarbonyl-piperazin-1-yl)-pyridin-2-ylamino]-7H-pyrrolo[2,3-d]pyrimidine-6-carboxylic acid dimethylamide]
< 4.82	< 4.82	7.00 to 8.00	–	–	–	CN(C)C(=O)c1cc2cnc(Nc3ccc(N4CCN(C(=O)CCC5CCCC5)CC4)cn3)nc2n1C1CCCC1 [Example 91, 7-Cyclopentyl-2-{5-[4-(3-cyclopentyl-propionyl)-piperazin-1-yl]-pyridin-2-ylamino}-7H-pyrrolo[2,3-d]pyrimidine-6-carboxylic acid dimethylamide]
< 4.82	< 4.82	7.00 to 8.00	–	–	–	CN(C)C(=O)c1cc2cnc(Nc3ccc(N4CCNC(=O)C4)cn3)nc2n1C1CCCC1 [Example 4, 7-Cyclopentyl-2-[5-(3-oxo-piperazin-1-yl)-pyridin-2-ylamino]-7H-pyrrolo[2,3-d]pyrimidine-6-carboxylic acid dimethylamide]
< 4.82	< 4.82	6.00 to 7.00	–	–	–	CC(=O)N1CCN(Cc2ccc(Nc3ncc4cc(C(=O)N(C)C)n(C5CCCC5)c4n3)nc2)CC1 [Example 61, 2-[5-(4-Acetyl-piperazin-1-ylmethyl)-pyridin-2-ylamino]-7-cyclopentyl-7H-pyrrolo[2,3-d]pyrimidine-6-carboxylic acid dimethylamide]
< 4.82	< 4.82	7.00 to 8.00	–	–	–	C[C@H](CO)NCc1ccc(Nc2ncc3cc(C(=O)N(C)C)n(C4CCCC4)c3n2)nc1 [Example 66, 7-Cyclopentyl-2-{5-[((R)-2-hydroxy-1-methyl-ethylamino)-methyl]-pyridin-2 lamino}-7H-pyrrolo[2,3-d]pyrimidine-6-carboxylic acid dimethylamide]
< 4.82	< 4.82	7.00 to 8.00	–	–	–	CN(C)C(=O)c1cc2cnc(Nc3ccc(CN4CCN(C(=O)CN)CC4)cn3)nc2n1C1CCCC1 [Example 65, 2-{5-[4-(2-Amino-acetyl)-piperazin-1-ylmethyl]-pyridin-2-ylamino}-7-cyclopentyl-7H-pyrrolo[2,3-d]pyrimidine-6-carboxylic acid dimethylamide]

Structure (SMILES)	pIC50 [1]	pIC50 [2]	pIC50 [3]	IC50 [1]	IC50 [2]	IC50 [3]
CN(C)C(=O)c1cc2cnc(Nc3ccc(N4CCN(C[C@H](O)CO)CC4)cn3)nc2n1C1CCCC1 [Example 29, 7-Cyclopentyl-2-{5-[4-((S)-2,3-dihydroxy-propyl)-piperazin-1-yl]-pyridin-2-ylamino}-7H-pyrrolo[2,3-d]pyrimidine-6-carboxylic acid dimethylamide]	< 4.82	4.82	7.00 to 8.00	–	–	–
CN(C)C(=O)c1cc2cnc(Nc3ccc(C4CCNCC4)cn3)nc2n1C1CCCC1 [Example 52, 7-Cyclopentyl-2-(1′,2′,3′,4′,5′,6-hexahydro-[3,4]bipyridinyl-6-ylamino)-7H-pyrrolo[2,3-d]pyrimidine-6-carboxylic acid dimethylamide]	< 4.82	< 4.82	7.00 to 8.00	–	–	–
